# Source: US9745345B2, “Anti-tumor polypeptides and method for preparing anti-tumor drugs comprisng the same” (priority 2013, dated 2017)
# Square brackets hold non-standard residues; d marks the D form. Ends that are not written are not given here. pS = N[C@@H](COP(=O)(O)O)C(=O)O; Ahx = NCCCCCC(=O)O
# Legend:
# SGC7901 cells [1] = assay: Annexin V-PE/7-AAD flow cytometry of apoptosis in SGC7901 cells; assay type: cell-based
# Description: Six groups with different treatment methods directed against SGC7901 cells were designed: blank control group; transfection Flag-control group; transfection Hag-JWA group; transfection Flag-JWA and ATO combined treatment group; ATO treatment group; and polypeptide CPP-1 and ATO combined treatment group. After 24 hrs of treatment for each group, Annexin V-PE/PI flow cytometry was used to examine apoptosis and Western Blot was used to detect the level of PARP-1. […]
# In normal cells, phosphatidyl serine (PS) are distributed on the inside of cell membrane lipid bilayer, and at the early stage of apoptosis the phosphatidyl serine (PS) in cell membranes is turned over from the inside of lipid membrane to the outside thereof. […] Annexin V was labeled with fluorescein phycoerythrin (PE); fluorescence microscopy or flow cytometry could be employed to examine apoptosis with the labeled Annexin V used as a fluorescent probe. […] Cells were divided into three group by the fluorescence intensity of 7-AAD labeling DNA: strong fluorescence of 7-AAD indicates dead cells, weak fluorescence of 7-AAD indicates apoptotic cells, and undetectable fluorescence of 7-AAD indicates normal active cells. […]
# SGC7901 cells [2] = assay: Western Blot of PARP-1 in SGC7901 cells; assay type: cell-based; details: CPP-1 and ATO combined action group versus other groups
# Description: The combined effect of ATO and polypeptide JWA-6 on the self-destruction of protein expression was also determined A375 cells in the logarithmic phase of growth were conventionally digested and 5×10^5 cells were inoculated evenly in a 60 mm cell culture dish, and different doses of ATO were used to individually treat the cells for 24 hrs, or different doses of ATO in combination with different doses of polypeptide JWA-6 were used to treat the cells for 24 hrs, after which 0.18 mL of RIPA lysis buffer containing 0.5% phenylmethanesulfonyl fluoride (PMSF) was added to extract protein. After centrifugation at 12000×g for 15 minutes, the supernatant was taken, protein concentration was examined. Based on the molecular weight measured, a polyacrylamide gel having a suitable concentration was chosen for protein electrophoresis where each well was added with […] of protein, and the conditions for electrolysis were 60 V, 30 minutes and 90 V, 1-1.5 hrs. After completion of the electrolysis, semi-dry transfer was performed to transfer the protein from the gel onto a polyvinylidene difluoride (PVDF) membrane. After completion of the transfer, the membrane was blocked with 5% skim milk at room temperature for 1-2 hrs. Then, the membrane was washed 3 times (each lasting 5 minutes) using Tris-buffered Saline with Tween (TBST) containing 0.1% Tween-20, and incubation of the corresponding antibody was performed overnight at 4° C. On the next day, membrane was washed 3 times (each lasting 5 minutes) using Tris-buffered Saline with Tween (TBST) containing 0.1% Tween-20; incubation of secondary antibody was performed at room temperature for 1-2 hrs; and again membrane was washed 8 times (each lasting 5 minutes) using Tris-buffered Saline with Tween (TBST) containing 0.1% Tween-20. The membrane was added with enhanced chemiluminescence (ECL) liquid and exposed. […]
# A375 cells [3] = assay: Western Blot of apoptosis-related molecules (PARP-1, caspase-3) in A375 cells; assay type: cell-based, human; details: JWA-6 in combination with ATO, 24 hrs; compared to untreated group and ATO alone
# Description: The combined effect of ATO and polypeptide JWA-6 on the self-destruction of protein expression was also determined A375 cells in the logarithmic phase of growth were conventionally digested and 5×10^5 cells were inoculated evenly in a 60 mm cell culture dish, and different doses of ATO were used to individually treat the cells for 24 hrs, or different doses of ATO in combination with different doses of polypeptide JWA-6 were used to treat the cells for 24 hrs, after which 0.18 mL of RIPA lysis buffer containing 0.5% phenylmethanesulfonyl fluoride (PMSF) was added to extract protein. After centrifugation at 12000×g for 15 minutes, the supernatant was taken, protein concentration was examined. Based on the molecular weight measured, a polyacrylamide gel having a suitable concentration was chosen for protein electrophoresis where each well was added with […] of protein, and the conditions for electrolysis were 60 V, 30 minutes and 90 V, 1-1.5 hrs. After completion of the electrolysis, semi-dry transfer was performed to transfer the protein from the gel onto a polyvinylidene difluoride (PVDF) membrane. After completion of the transfer, the membrane was blocked with 5% skim milk at room temperature for 1-2 hrs. Then, the membrane was washed 3 times (each lasting 5 minutes) using Tris-buffered Saline with Tween (TBST) containing 0.1% Tween-20, and incubation of the corresponding antibody was performed overnight at 4° C. On the next day, membrane was washed 3 times (each lasting 5 minutes) using Tris-buffered Saline with Tween (TBST) containing 0.1% Tween-20; incubation of secondary antibody was performed at room temperature for 1-2 hrs; and again membrane was washed 8 times (each lasting 5 minutes) using Tris-buffered Saline with Tween (TBST) containing 0.1% Tween-20. The membrane was added with enhanced chemiluminescence (ECL) liquid and exposed.
# Polypeptide CPP-JWA-6 at a dose of 20 μM, 50 μM was applied individually and applied in combination with ATO (5 μM) on A375 cells (as shown in FIG. 40) and SGC7901 cells (as shown in FIG. 41) for 24 hrs before protein was extracted, and the Western Blot method of Example 7 was used to examine the changes in apoptosis-related molecules.
# B16 cells = assay: Western Blot of PARP-1 in B16 cells; assay type: cell-based; details: JWA-6 in combination with ATO, 24 hrs
# [4] = system: Human Melanoma A375 Cells; assay: Cell proliferation with CCK8 reagent, A375 cells; assay type: cell-based; details: 0-50 μM, 24, 48 and 72 hrs, in comparison with the control group
# Description: (§1) B16F10 or A375 cells in the logarithmic phase of growth were trypsinized and seeded in a 96-well plate (5×10^3 cells/well), and were treated with different doses (0 μM, 5 μM, 10 μM, 25 μM, 50 μM) of polypeptide JWA-1, JWA-5, JWA-6 or non-pep (the polypeptide sequence used was the same as Example 3) for 24 hrs, 48 hrs and 72 hrs, respectively. The original culture medium was removed from the 96 wells at the indicated time and cell proliferation was determined with CCK8 reagent according to the manufacturer's instructions. Four duplicate samples were taken from each group and the experiments were repeated for three times.
# [5] = system: Mouse Melanoma B16F10 Cells; assay: Cell proliferation with CCK8 reagent, B16F10 cells; assay type: cell-based; details: 0-50 μM, 24, 48 and 72 hrs, in comparison with the control group
# Description: as §1
# [6] = system: human melanoma A375 cells; assay: Human melanoma A375 subcutaneous xenograft in NOD/SCID mice, intraperitoneal injection of polypeptides; assay type: in vivo; details: Example 5; 50 mg/kg intraperitoneal, alternate days, 5 times
# Description: The polypeptide designed and synthesized in this example was JWA-6+RGD whose sequence was SEQ ID NO: 7, i.e. 6-aminocaproic acid-FPGSDRF-GGGG-RGD, wherein amino acid S was phosphorylated. In addition, the N-terminus of the polypeptide sequence was acetylated and the C-terminus thereof was amidated during synthesis to prevent rapid degradation of the polypeptide. In this example, non-obese diabetic/severe combined immunodeficiency (NOD/SCID) mice were chosen for tumor-bearing model and the method for dorsal subcutaneous tumor bearing by inoculation of human melanoma A375 cells is the same as Example 2. The mice were randomly divided into four treatment groups after the tumors grew to a volume of about 100 mm^3. […]
# Then, 50 mg/kg polypeptide JWA-6, 10 mg/kg polypeptide JWA-6+RGD, 50 mg/kg polypeptide JWA-6+RGD, and 50 mg/kg non-pep (the polypeptide sequence used was the same as Example 3) were injected intraperitoneally. The various groups were administered with injection on alternate days for 5 times consecutively; and the body weight of the mice and their tumor diameters were measured at each administration. After completion of the experiment the mice were sacrificed after anesthesia, tumors were separated from the bodies and the tumor weights measured.
# Thereafter, the tumor bearing mice were obtained using the foregoing method of this example and divided into seven injection groups which were intraperitoneally injected with polypeptides JWA-6+RGD, JWA-6+RGD0, JWA-6+RGD1, JWA-6+RGD3, JWA-6+RGD7, JWA-6+RGD10, and non-pep (the polypeptide sequence used was the same as Example 3) at a dose of 50 mg/kg. The various groups were administered by intraperitoneal injection on alternate days for 5 times consecutively; and the body weight of the mice and their tumor diameters were measured at each administration. The day of first administration was taken as the first day, and the experiment was stopped on the twelfth day when the mice were sacrificed after anesthesia, and tumors were separated from the bodies and the tumor weights were measured.
# A375 cells [7] = assay: Cytoactivity of A375 cells treated with ATO alone or with polypeptides in combination with ATO; assay type: cell-based, human
# Description: Firstly, the dose and time for treatment of A375 cells with ATO were determined. A375 cells in the logarithmic phase of growth were conventionally digested and seeded in a 96-well plate (5×10^3 cells/well), and different doses (5 μM, 10 μM, 25 μM, 50 μM) of ATO were used to treat the cells for 24 hrs and 48 hrs after cell attachment. It was discovered that the activity of A375 cells was reduced by 40% after 24 hrs of treatment with 5 μM ATO (as shown in FIG. 24), and that the cell growth inhibition rate was approximately 100% after 48 hrs of treatment with different doses of ATO (as shown in FIG. 25). Therefore, ATO with a concentration smaller than or equal to 5 μM was chosen to treat the cells for 24 hrs for subsequent reference of dose and time for combined medication.
# [8] = system: SGC7901 gastric cancer cell; assay: Fluorescence of FITC-modified cell-penetrating peptides after entry into SGC7901 cells; assay type: cell-based; details: 20 μM, 3 hrs
# Description: To enable JWA functional polypeptides to effectively penetrate into tumor cells, four typical CPPs: R9, TAT, pep-1, 2K (see Table 3), and a blank control having only JWA-1 were selected, the cell-penetrating peptide (CPP) with the highest cell-penetrating effect, its optimal action concentration and optimal action time were selected from the cell model.
# To facilitate the use of fluorescence microscopy to directly observe whether polypeptides have the ability to enter cells, the N-terminuses of the aforementioned sequences and JWA-1 were modified with fluorescein isothiocyanate (FITC) and the C-terminuses thereof were amidated.
substance,measurement,setting,value
6-aminocaproic acid-(R)9-FFPGSDRFA ([Ahx]RRRRRRRRRFFPG[pS]DRFA) [CPP-1],apoptosis rate,"SGC7901 cells [1]; 20 μM polypeptide 3 hrs, then 5 μM ATO 24 hrs (combined action group)",55.76%
same,expression of PARP-1 spliceosome,SGC7901 cells [2],higher than those of other groups
6-aminocaproic acid-FPGSDRF ([Ahx]FPG[pS]DRF) [JWA-6],cleaved PARP-1,A375 cells [3],significantly increased
same,cleaved caspase-3,A375 cells [3],significantly increased
same,changes of PARP-1,B16 cells,changes of PARP-1 were also seen
same,inhibition effect on A375 cells,[4],no inhibition effect
same,inhibition effect on B16F10 cells,[5],no inhibition effect
same,tumor inhibition effect,[6],a certain degree of tumor inhibition effect
same,"cytoactivity of A375 cells, combined use with ATO","A375 cells [7]; polypeptide 50-500 μM in combination with ATO 0.5-5 μM, 24 and 48 hrs",obvious toxicity
"6-aminocaproic acid-RRRRRRRRR ([Ahx]RRRRRRRRR) [R9, cell-penetrating peptide (CPP)]","fluorescence after entry into cells, differences between R9 group and other groups",[8],the most significant
"arsenic trioxide [ATO, reference compound]",apoptosis rate,"SGC7901 cells [1]; pure ATO treatment group, 24 hrs",24.69%
same,activity of A375 cells reduced by,"A375 cells [7]; 5 μM ATO alone, 24 hrs",40%
same,cell growth inhibition rate,"A375 cells [7]; ATO alone, different doses (5, 10, 25, 50 μM), 48 hrs",approximately 100%
